For 28 molecules, IC50 results are on record in patent publication US20260070911A1, “INHIBITORS OF TAM RECEPTORS” (National Health Research Institutes, priority 2022, published 2026).

Structures are written as SMILES. pIC50: −log10 of the molar value.

Type in all cases: biochemical
One assay has as its target T1, MERTK (Homo sapiens, UniProt Q12866).
T1 sequence (Q12866 21-999): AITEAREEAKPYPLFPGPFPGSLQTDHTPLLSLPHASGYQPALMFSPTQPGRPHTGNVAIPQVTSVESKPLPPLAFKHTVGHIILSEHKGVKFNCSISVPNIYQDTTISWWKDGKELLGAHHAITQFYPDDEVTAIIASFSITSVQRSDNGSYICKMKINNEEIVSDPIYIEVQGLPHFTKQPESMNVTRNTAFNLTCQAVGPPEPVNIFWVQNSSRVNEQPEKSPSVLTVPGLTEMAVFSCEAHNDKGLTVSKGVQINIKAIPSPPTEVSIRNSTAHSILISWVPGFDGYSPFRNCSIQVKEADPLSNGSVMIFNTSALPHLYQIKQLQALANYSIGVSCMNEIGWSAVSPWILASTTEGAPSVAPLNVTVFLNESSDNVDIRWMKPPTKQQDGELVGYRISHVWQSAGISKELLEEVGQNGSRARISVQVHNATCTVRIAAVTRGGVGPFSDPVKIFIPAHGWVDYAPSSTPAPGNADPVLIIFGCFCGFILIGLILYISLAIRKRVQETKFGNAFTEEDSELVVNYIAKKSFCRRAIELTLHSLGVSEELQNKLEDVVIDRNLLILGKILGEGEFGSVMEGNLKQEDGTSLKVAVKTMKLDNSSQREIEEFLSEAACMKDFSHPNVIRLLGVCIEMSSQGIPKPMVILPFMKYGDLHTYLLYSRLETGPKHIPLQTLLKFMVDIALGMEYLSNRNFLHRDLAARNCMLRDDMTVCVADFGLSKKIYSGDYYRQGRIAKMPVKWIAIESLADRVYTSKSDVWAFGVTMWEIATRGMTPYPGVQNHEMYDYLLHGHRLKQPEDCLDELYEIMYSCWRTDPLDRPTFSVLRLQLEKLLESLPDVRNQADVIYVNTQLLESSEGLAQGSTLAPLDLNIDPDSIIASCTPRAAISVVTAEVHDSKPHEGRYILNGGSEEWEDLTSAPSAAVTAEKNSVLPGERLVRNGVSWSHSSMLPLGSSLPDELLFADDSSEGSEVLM
The experiment in a line: MERTK enzymatic assay (Kinase Glo). The conditions noted are these: purified kinase, ATP 12 μM, read-out: MER Enzymatic Inhibition (%).

The target in the next assay is T2, AXL (Homo sapiens, UniProt P30530).
T2 sequence (P30530 26-894): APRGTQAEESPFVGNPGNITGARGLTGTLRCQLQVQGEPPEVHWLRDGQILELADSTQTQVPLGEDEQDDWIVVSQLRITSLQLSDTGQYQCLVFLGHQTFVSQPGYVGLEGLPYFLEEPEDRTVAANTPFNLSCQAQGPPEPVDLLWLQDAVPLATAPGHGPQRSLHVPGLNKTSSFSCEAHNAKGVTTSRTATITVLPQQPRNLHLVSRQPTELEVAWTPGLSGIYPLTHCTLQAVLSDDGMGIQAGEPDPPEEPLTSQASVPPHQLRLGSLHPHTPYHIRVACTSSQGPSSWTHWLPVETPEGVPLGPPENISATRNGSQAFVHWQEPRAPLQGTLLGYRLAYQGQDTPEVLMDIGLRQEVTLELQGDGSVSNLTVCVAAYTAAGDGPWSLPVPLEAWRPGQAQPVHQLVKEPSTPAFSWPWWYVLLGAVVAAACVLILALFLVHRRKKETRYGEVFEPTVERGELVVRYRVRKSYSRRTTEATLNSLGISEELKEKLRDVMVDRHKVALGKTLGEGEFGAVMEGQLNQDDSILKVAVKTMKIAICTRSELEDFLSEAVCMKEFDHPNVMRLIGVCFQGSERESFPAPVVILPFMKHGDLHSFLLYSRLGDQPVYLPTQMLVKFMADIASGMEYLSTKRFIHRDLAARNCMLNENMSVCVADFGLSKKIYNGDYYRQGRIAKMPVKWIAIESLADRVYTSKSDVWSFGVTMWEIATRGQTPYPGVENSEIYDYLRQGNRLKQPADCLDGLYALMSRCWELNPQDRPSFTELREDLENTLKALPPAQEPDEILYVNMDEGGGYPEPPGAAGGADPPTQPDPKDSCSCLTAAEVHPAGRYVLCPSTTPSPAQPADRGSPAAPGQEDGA
The experiment in a line: AXL enzymatic assay (ADP-Glo). The conditions noted are these: purified kinase, ATP 50 μM, read-out: AXL Enzymatic Inhibition (%).

The test system of a further assay is MER/AXL. The experiment in a line: Dual MER/AXL inhibition (enzymatic). The conditions noted are these: class for both MER and AXL.

For the molecule `CC(=O)Nc1cccc(-c2c(-c3cc[nH]n3)oc3ncnc(Oc4ccc(NC(=O)c5cccn(-c6ccc(F)cc6)c5=O)cc4)c23)c1` [Compound 67], the pIC50 at MERTK is 4.30 to 7.00; at AXL, greater than 7.70; in the assay with MER/AXL it was 4.30 to 7.00.

Consider `Cn1cc(-c2oc3ncnc(Oc4ccc(NC(=O)c5cc6c(n(-c7ccc(F)cc7)c5=O)CCCC6=O)cc4)c3c2-c2cccc(N)c2)cn1` [Compound 68], for which the figures for the pIC50 on MERTK, on AXL and in the assay with MER/AXL were 7.00 to 7.70, greater than 7.70 and 7.00 to 7.70, respectively.

In the case of `CC(=O)Nc1cccc(-c2c(-c3cnn(C)c3)oc3ncnc(Oc4ccc(NC(=O)c5cc6c(n(-c7ccc(F)cc7)c5=O)CCCC6=O)cc4)c23)c1` [Compound 69], the pIC50 at MERTK was 4.30 to 7.00; at AXL, greater than 7.70; in the assay on MER/AXL it was 4.30 to 7.00.

With `CC(=O)Nc1cccc(-c2c(-c3cnn(C)c3)oc3ncnc(Oc4ccc(NC(=O)c5ccc(C)n(-c6ccc(F)cc6)c5=O)cc4)c23)c1` [Compound 70], the pIC50 at MERTK, on AXL and in the assay on MER/AXL was greater than 7.70 throughout.

`Cc1ccn(-c2ccc(F)cc2)c(=O)c1C(=O)Nc1ccc(Oc2ncnc3oc(-c4cnn(C)c4)c(-c4cccc(N)c4)c23)cc1` [Compound 71]: the pIC50 on MERTK, on AXL and with MER/AXL was greater than 7.70 each time.

Regarding `CC(=O)Nc1cccc(-c2c(-c3cnn(C)c3)oc3ncnc(Oc4ccc(NC(=O)c5c(C)ccn(-c6ccc(F)cc6)c5=O)cc4)c23)c1` [Compound 72], the pIC50 on MERTK, at AXL and with MER/AXL was 4.30 to 7.00 in each case.

For the molecule `Cc1cc(F)ccc1-n1cccc(C(=O)Nc2ccc(Oc3ncnc4oc(-c5cnn(C)c5)c(-c5cccc(N)c5)c34)cc2)c1=O` [Compound 73], the pIC50 is 7.00 to 7.70 on MERTK, greater than 7.70 at AXL and 7.00 to 7.70 with MER/AXL.

In the case of `CC(=O)Nc1cccc(-c2c(-c3cnn(C)c3)oc3ncnc(Oc4ccc(NC(=O)c5cccn(-c6ccc(F)cc6C)c5=O)cc4)c23)c1` [Compound 74], the pIC50 at MERTK, at AXL and in the assay with MER/AXL was 4.30 to 7.00 throughout.

In the case of `CC(=O)Nc1cccc(-c2c(-c3cnn(C)c3)oc3ncnc(Oc4ccc(NC(=O)c5cccn(C)c5=O)cc4)c23)c1` [Compound 75], the pIC50 at MERTK, on AXL and with MER/AXL was 4.30 to 7.00 in each case.

On to `O=C(Nc1ccc(Oc2ncnc3[nH]c(-c4ccccc4)cc23)cc1)c1cccn(-c2ccc(F)cc2)c1=O` [Compound 76], for which the pIC50 at MERTK, on AXL and in the assay on MER/AXL was 4.30 to 7.00 throughout.

As for `Cn1cc(-c2oc3ncnc(Oc4ccc(NC(=O)c5ccc[nH]c5=O)cc4)c3c2-c2cccc(N)c2)cn1` [Compound 77], the pIC50 at MERTK, at AXL and with MER/AXL was 4.30 to 7.00 throughout.

Turning to `Cn1cc(-c2cc3c(Oc4ccc(NC(=O)c5cccn(-c6ccc(F)cc6)c5=O)cc4)ncnc3[nH]2)cn1` [Compound 78], the pIC50 at MERTK was 7.00 to 7.70; on AXL it was greater than 7.70; in the assay on MER/AXL, 7.00 to 7.70.

On to `O=C(Nc1ccc(Oc2ncnc3[nH]c(-c4ccsc4)cc23)cc1)c1cccn(-c2ccc(F)cc2)c1=O` [Compound 79], for which the pIC50 on MERTK, on AXL and with MER/AXL was 4.30 to 7.00 throughout.

Take `Cn1cc(-c2oc3ncnc(Oc4ccc(NC(=O)c5cccn(-c6ccc(F)nc6)c5=O)cc4)c3c2-c2cccc(N)c2)cn1` [Compound 80]: the results for the pIC50 on MERTK, at AXL and in the assay with MER/AXL were 7.00 to 7.70, greater than 7.70 and 7.00 to 7.70, respectively.

Consider `CC(=O)Nc1cccc(-c2c(-c3cnn(C)c3)oc3ncnc(Oc4ccc(NC(=O)c5cccn(-c6ccc(F)nc6)c5=O)cc4)c23)c1` [Compound 81], for which the pIC50 on MERTK, at AXL and in the assay on MER/AXL was 4.30 to 7.00 each time.

Consider `CN(C)Cc1cccc(-c2c[nH]c3ncnc(Oc4ccc(NC(=O)c5cccn(-c6ccc(F)cc6)c5=O)cc4)c23)c1` [Compound 82], for which the pIC50 at MERTK, at AXL and in the assay on MER/AXL was greater than 7.70 each time.

`Cn1cc(-c2oc3ncnc(Oc4ccc(NC(=O)c5cccn(C6CCCCC6)c5=O)cc4)c3c2-c2cccc(N)c2)cn1` [Compound 83]: the pIC50 on MERTK, on AXL and with MER/AXL was 4.30 to 7.00 in each case.

For the molecule `CN(C)Cc1cccc(-c2c(-c3cnn(C)c3)oc3ncnc(Oc4ccc(NC(=O)c5cccn(C6CCCCC6)c5=O)cc4)c23)c1` [Compound 84], the pIC50 at MERTK, on AXL and with MER/AXL was 4.30 to 7.00 each time.

For `Cn1cc(-c2cc3c(Oc4ccc(NC(=O)c5cccn(C6CCCCC6)c5=O)cc4)ncnc3o2)cn1` [Compound 86], the pIC50 at MERTK, on AXL and in the assay with MER/AXL was 4.30 to 7.00 in each case.

As to `CN(C)Cc1cccc(-c2n[nH]c3ncnc(Oc4ccc(NC(=O)c5cccn(-c6ccc(F)cc6)c5=O)cc4)c23)c1` [Compound 88], the pIC50 was 7.00 to 7.70 on MERTK, greater than 7.70 on AXL and 7.00 to 7.70 in the assay with MER/AXL.

As to `CN(C)Cc1ccccc1-c1c(-c2cnn(C)c2)oc2ncnc(Oc3ccc(NC(=O)c4cccn(-c5ccc(F)cc5)c4=O)cc3)c12` [Compound 91], the pIC50 at MERTK, on AXL and with MER/AXL was 4.30 to 7.00 each time.

Turning to `Cn1cc(-c2oc3ncnc(Oc4ccc(NC(=O)c5cccn(-c6ccc(F)cc6F)c5=O)cc4)c3c2-c2cccc(N)c2)cn1` [Compound 92], the pIC50 was 7.00 to 7.70 at MERTK, greater than 7.70 at AXL and 7.00 to 7.70 with MER/AXL.

As to `CN(C)Cc1cccc(-c2c(-c3cnn(C)c3)oc3ncnc(Oc4ccc(NC(=O)c5cccn(-c6ccc(F)cc6F)c5=O)cc4)c23)c1` [Compound 93], the pIC50 is 7.00 to 7.70 on MERTK, greater than 7.70 at AXL and 7.00 to 7.70 in the assay with MER/AXL.

`Cn1cc(-c2oc3ncnc(Oc4ccc(NC(=O)c5cccn(-c6ccc(F)c(F)c6)c5=O)cc4)c3c2-c2cccc(N)c2)cn1` [Compound 94]: the figures for the pIC50 on MERTK, on AXL and with MER/AXL were 7.00 to 7.70, greater than 7.70 and 7.00 to 7.70, respectively.

As for `CN(C)Cc1cccc(-c2c(-c3cnn(C)c3)oc3ncnc(Oc4ccc(NC(=O)c5cccn(-c6ccc(F)c(F)c6)c5=O)cc4)c23)c1` [Compound 95], the pIC50 on MERTK, on AXL and in the assay with MER/AXL was greater than 7.70 in each case.

As to `Cc1cc(F)ccc1-n1cccc(C(=O)Nc2ccc(Oc3ncnc4oc(-c5cnn(C)c5)c(-c5cccc(CN(C)C)c5)c34)cc2)c1=O` [Compound 98], the pIC50 is 7.00 to 7.70 on MERTK, greater than 7.70 at AXL and 7.00 to 7.70 with MER/AXL.

In the case of `Cn1cc(-c2oc3ncnc(Oc4ccc(NC(=O)c5cc(-c6ccc(F)cc6)on5)cc4)c3c2-c2cccc(N)c2)cn1` [Compound 115], the pIC50 on MERTK, at AXL and in the assay with MER/AXL was 4.30 to 7.00 in each case.

Regarding `CC(=O)Nc1cccc(-c2c(-c3cnn(C)c3)oc3ncnc(Oc4ccc(NC(=O)c5cc(-c6ccc(F)cc6)on5)cc4)c23)c1` [Compound 116], the pIC50 at MERTK, at AXL and with MER/AXL was 4.30 to 7.00 throughout.
